Data reported in patent US20230278981A1, “DICHLOROPHENOL HSD17B13 INHIBITORS AND USES THEREOF” (INIPHARM, INC., priority 2020, published 2023).

target: HSD17B13 (Homo sapiens (Human), UniProt Q7Z5P4); experiment: LC/MS estrone detection assay: conversion of estradiol to estrone by HSD17B13; assay type: biochemical; conditions: 4 μM estradiol, 6 mM NAD+, 30 nM HSD17B13 enzyme (E. coli expressed His-tagged), 2 hours at 26.5° C.
Protocol: The liquid chromatography/mass spectrometry (LC/MS) estrone detection assay monitors the conversion of estradiol to estrone by HSD17B13. This assay was undertaken in a 96wp format (Eppendorf deep well Plate 96/500) in an 80 μl reaction volume containing: 4 μM of Estradiol (E2; Cayman; Ser. No. 10/006,315), 6 mM NAD+(Sigma; #N0623) and 30 nM HSD17B13 enzyme (in-house; E. coli expressed His-tagged, purified, soluble protein) in a reaction containing […] potassium phosphate buffer pH 7.4, with 0.5% vehicle (DMSO). Reactions were incubated for 2 hours at 26.5° C., and estradiol (E2) conversion to estrone (E1) was quantitated by LC-MS/MS based analyte detection for both E2 and E1 using LCMS grade reagents.
Reactions were terminated by the addition of two volumes of acetonitrile (MeCN; LCMS grade; CAS #75/05/8) containing deuterated (D4)-E1 used as internal standard (Clear Synth; #CS-T-54273; 500 ng/mL final concentration). Samples were applied to pre-prepared Bond Elut-C18 extraction cartridges (3 mL; Agilent; Ser. No. 12/102,028), washed and eluted in MeCN. Eluates were dried under nitrogen and re-suspended in 60% methanol (LCMS grade methanol; CAS #67/56/1) before submission for analysis. Aqueous linearity for E2 and E1 were included for quantification.
Analysis of samples was undertaken on a XBridge BEH C18 column (Waters; #186003033) using 0.1% Diethyl Amine in MeCN (mobile phase A; DEA CAS #109-89-7) and 0.1% Diethyl Amine in milli-Q water (mobile phase B) in a 3 min gradient allowing 25% B. Analytes were detected in negative mode using MRM analysis, with E2 having a RT of 1.85 min and E1 having a RT of 2 min. Activity of the enzyme, in the absence of NAD^+, was used to evaluate specificity of conversion. Enzyme activity in the presence of test samples was expressed as a percentage of the uninhibited enzyme activity, and plotted versus inhibitor concentration. Non-linear regression was performed using a four-parameter logistic model and GraphPad Prism software (GraphPad Software, La Jolla, Calif.). All assessments were undertaken in duplicate evaluations and pooled during extraction process and subsequently injected as duplicates for LC-MS/MS analysis.

Sequence of HSD17B13 (Q7Z5P4 20-300): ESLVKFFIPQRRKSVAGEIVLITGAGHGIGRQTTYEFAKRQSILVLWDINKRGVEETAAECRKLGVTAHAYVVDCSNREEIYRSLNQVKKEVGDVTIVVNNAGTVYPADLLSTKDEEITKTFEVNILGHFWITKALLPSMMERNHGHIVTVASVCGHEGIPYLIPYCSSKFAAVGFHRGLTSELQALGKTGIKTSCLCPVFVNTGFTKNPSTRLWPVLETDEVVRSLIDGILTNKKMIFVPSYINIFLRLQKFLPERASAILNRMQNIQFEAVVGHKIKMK

| Compound | IC50 [nM] |
| --- | --- |
| O=C(Nc1scnc1C(=O)NCc1cccc(F)c1)c1cc(Cl)c(O)c(Cl)n1 [Example 189, 5-(4,6-dichloro-5-hydroxypicolinamido)-N-(3-fluorobenzyl)thiazole-4-carboxamide] | 100 to 500 |
| O=C(Nc1ncsc1C(=O)NCCc1ccccc1C(F)(F)F)c1cc(Cl)c(O)c(Cl)c1 [Example 25, 4-(3,5-dichloro-4-hydroxybenzamido)-N-(2-(trifluoromethyl)phenethyl) thiazole-5-carboxamide] | 100 to 500 |
| Cc1ccc(NC(=O)c2cc(Cl)c(O)c(Cl)n2)c2c(=O)n(Cc3ncccc3C(F)(F)F)c(C(F)F)nc12 [Example 177, 4,6-dichloro-N-(2-(difluoromethyl)-8-methyl-4-oxo-3-((3-(trifluoromethyl)pyridin-2-yl)methyl)-3,4-dihydroquinazolin-5-yl)-5-hydroxypicolinamide] | 100 to 500 |
| O=C(Nc1scnc1C(=O)NCc1ccccc1OC(F)(F)F)c1cc(Cl)c(O)c(Cl)n1 [Example 191, 5-(4,6-dichloro-5-hydroxypicolinamido)-N-(2-(trifluoromethoxy)benzyl) thiazole-4-carboxamide] | ≤ 100 |
| O=C(N[C@H]1CCCC[C@@H]1C(=O)NCc1ccccc1OC(F)(F)F)c1cc(Cl)c(O)c(Cl)n1 [Example 144, 4,6-dichloro-5-hydroxy-N-((1S, 2S)-2-((2-(trifluoromethoxy)benzyl)carbamoyl)cyclohexyl)picolinamide] | > 10000 |
| O=C(Nc1scnc1C(=O)NCc1ccccc1C(F)(F)F)c1cc(Cl)c(O)c(Cl)c1 [Example 182, 5-(3,5-dichloro-4-hydroxybenzamido)-N-(2-(trifluoromethyl)benzyl)thiazole-4-carboxamide] | ≤ 100 |
| O=C(NC1CCCC1C(=O)NCc1ccccc1OC(F)(F)F)c1cc(Cl)c(O)c(Cl)n1 (stereo not shown) [Example 134, 4,6-dichloro-5-hydroxy-N-[2-({[2-(trifluoromethoxy)phenyl]methyl}carbamoyl)cyclopentyl] pyridine-2-carboxamide] | 500 to 1000 |
| O=C(Nc1ncsc1C(=O)NCc1ccc(F)cc1F)c1cc(Cl)c(O)c(Cl)c1 [Example 28, 4-(3,5-dichloro-4-hydroxybenzamido)-N-(2,4-difluorobenzyl)thiazole-5-carboxamide] | 1000 to 10000 |
| Cc1ccc(NC(=O)c2cc(Cl)c(O)c(Cl)n2)c2c(=O)n(Cc3cccc(C(F)(F)F)n3)c(C)nc12 [Example 205, 4,6-dichloro-N-(2,8-dimethyl-4-oxo-3-((6-(trifluoromethyl)pyridin-2-yl)methyl)-3,4-dihydroquinazolin-5-yl)-5-hydroxypicolinamide] | 500 to 1000 |
| Cc1nc2c(F)ccc(NC(=O)c3cc(Cl)c(O)c(Cl)n3)c2c(=O)n1Cc1ncccc1C(F)(F)F [Example 155, 4,6-dichloro-N-(8-fluoro-2-methyl-4-oxo-3-((3-(trifluoromethyl)pyridin-2-yl)methyl)-3,4-dihydroquinazolin-5-yl)-5-hydroxypicolinamide] | 100 to 500 |
| Cc1nc2c(Cl)ccc(NC(=O)c3cc(Cl)c(O)c(Cl)c3)c2c(=O)n1Cc1ncccc1C(F)(F)F [Example 166, 3,5-dichloro-N-(8-chloro-2-methyl-4-oxo-3-((3-(trifluoromethyl)pyridin-2-yl)methyl)-3,4-dihydrjoquinazolin-5-yl)-4-hydroxybenzamide] | 100 to 500 |
| Cn1c(=O)n(Cc2ccccc2OC(F)(F)F)c(=O)c2c(NC(=O)c3cc(Cl)c(O)c(Cl)n3)cccc21 [Example 113, 4,6-dichloro-5-hydroxy-N-(1-methyl-2,4-dioxo-3-(2-(trifluoromethoxy)benzyl)-1,2,3,4-tetrahydroquinazolin-5-yl)picolinamide] | 100 to 500 |
| Cc1ccc(NC(=O)c2cc(Cl)c(O)c(Cl)c2)c2c(=O)n(Cc3ncccc3C(F)(F)F)c(C(F)F)nc12 [Example 164, 3,5-dichloro-N-(2-(difluoromethyl)-8-methyl-4-oxo-3-((3-(trifluoromethyl)pyridin-2-yl)methyl)-3,4-dihydroquinazolin-5-yl)-4-hydroxybenzamide] | 100 to 500 |
| [2H]C([2H])([2H])c1nc2c(F)ccc(NC(=O)c3cc(Cl)c(O)c(Cl)n3)c2c(=O)n1Cc1ccccc1C(F)(F)F [Example 184, 4,6-dichloro-N-(8-fluoro-2-(methyl-d3)-4-oxo-3-(2-(trifluoromethyl)benzyl)-3,4-dihydroquinazolin-5-yl)-5-hydroxypicolinamide] | 100 to 500 |

Results, then the compound that gave them:

| IC50 [nM] | Compound |
| --- | --- |
| ≤ 100 | Cc1nc2c(F)ccc(NC(=O)c3cc(Cl)c(O)c(Cl)c3)c2c(=O)n1Cc1ncccc1C(F)(F)F [Example 154, 3,5-dichloro-N-(8-fluoro-2-methyl-4-oxo-3-((3-(trifluoromethyl)pyridin-2-yl)methyl)-3,4-dihydroquinazolin-5-yl)-4-hydroxybenzamide] |
| 1000 to 10000 | CN1CCN(c2ccc(Cn3cnc4cccc(NC(=O)c5cc(Cl)c(O)c(Cl)c5)c4c3=O)cc2)CC1 [Example 45, 3,5-dichloro-4-hydroxy-N-(3-(4-(4-methylpiperazin-1-yl)benzyl)-4-oxo-3,4-dihydroquinazolin-5-yl)benzamide] |
| 1000 to 10000 | O=C(Nc1cccc2ncn(Cc3nncs3)c(=O)c12)c1cc(Cl)c(O)c(Cl)c1 [Example 14, N-(3-((1,3,4-thiadiazol-2-yl)methyl)-4-oxo-3,4-dihydroquinazolin-5-yl)-3,5-dichloro-4-hydroxybenzamide] |
| ≤ 100 | O=C(Nc1cccc2ncn(C3(c4ccccc4F)CC3)c(=O)c12)c1cc(Cl)c(O)c(Cl)c1 [Example 21, 3,5-dichloro-N-(3-(1-(2-fluorophenyl)cyclopropyl)-4-oxo-3,4-dihydroquinazolin-5-yl)-4-hydroxybenzamide] |
| 100 to 500 | CS(=O)(=O)c1ccccc1Cn1cnc2cccc(NC(=O)c3cc(Cl)c(O)c(Cl)c3)c2c1=O [Example 51, 3,5-dichloro-4-hydroxy-N-(3-(2-(methylsulfonyl)benzyl)-4-oxo-3,4-dihydroquinazolin-5-yl)benzamide.] |
| 100 to 500 | CC(c1ccccc1OC(F)(F)F)n1cnc2cccc(NC(=O)c3cc(Cl)c(O)c(Cl)c3)c2c1=O (stereo not shown) [Example 74, 3,5-dichloro-4-hydroxy-N-(4-oxo-3-(1-(2-(trifluoromethoxy)phenyl)ethyl)-3,4-dihydroquinazolin-5-yl)benzamide] |
| 100 to 500 | Cc1nc2c(F)ccc(NC(=O)c3cc(Cl)c(O)c(Cl)c3)c2c(=O)n1[C@H](C)c1ccccc1OC(F)(F)F [Example 174, (R)-3,5-dichloro-N-(8-fluoro-2-methyl-4-oxo-3-(1-(2-(trifluoromethoxy)phenyl)ethyl)-3,4-dihydroquinazolin-5-yl)-4-hydroxybenzamide] |
| 1000 to 10000 | O=C(Nc1cccc2ncnc(NCc3ccccc3OC(F)F)c12)c1cc(Cl)c(O)c(Cl)c1 [Example 54, 3,5-dichloro-N-[4-({[2-(difluoromethoxy)phenyl]methyl}amino)quinazolin-5-yl]-4-hydroxybenzamide] |
| 1000 to 10000 | O=C(Nc1cccc2ncn(Cc3nncs3)c(=O)c12)c1cc(Cl)c(O)c(Cl)c1 [Example 39, N-(3-((1,3,4-thiadiazol-2-yl)methyl)-4-oxo-3,4-dihydroquinazolin-5-yl)-3,5-dichloro-4-hydroxybenzamide] |
| ≤ 100 | O=C(Nc1cccc2ncn(C(c3ccccc3)c3ccccc3)c(=O)c12)c1cc(Cl)c(O)c(Cl)c1 [Example 78, N-(3-benzhydryl-4-oxo-3,4-dihydroquinazolin-5-yl)-3,5-dichloro-4-hydroxybenzamide] |
| 100 to 500 | Cc1ccc(NC(=O)c2cc(Cl)c(O)c(Cl)c2)c2c(=O)n(Cc3ncccc3Cl)c(C)nc12 [Example 172, 3,5-dichloro-N-(3-((3-chloropyridin-2-yl)methyl)-2,8-dimethyl-4-oxo-3,4-dihydroquinazolin-5-yl)-4-hydroxybenzamide] |
| 100 to 500 | [2H]C([2H])([2H])c1nc2c(F)ccc(NC(=O)c3cc(Cl)c(O)c(Cl)c3)c2c(=O)n1Cc1ccccc1C(F)(F)F [Example 171, 3,5-dichloro-N-(8-fluoro-2-(methyl-d3)-4-oxo-3-(2-(trifluoromethyl)benzyl)-3,4-dihydroquinazolin-5-yl)-4-hydroxybenzamide] |
| 500 to 1000 | Cn1ccc(Cn2cnc3cccc(NC(=O)c4cc(Cl)c(O)c(Cl)c4)c3c2=O)n1 [Example 56, 3,5-dichloro-4-hydroxy-N-{3-[(1-methyl-1H-pyrazol-3-yl)methyl]-4-oxo-3,4-dihydroquinazolin-5-yl}benzamide] |
| 100 to 500 | O=C(Nc1cccc2ncn(Cc3ccc(C(F)(F)F)nc3)c(=O)c12)c1cc(Cl)c(O)c(Cl)c1 [Example 19, 3,5-dichloro-4-hydroxy-N-(4-oxo-3-((6-(trifluoromethyl)pyridin-3-yl)methyl)-3,4-dihydroquinazolin-5-yl)benzamide] |
